From US20200397795A1, “PROPHYLACTIC TREATMENT OF VENOUS THROMBOEMBOLISM” (JANSSEN PHARMACEUTICALS, INC., priority 2019, published 2020)

Tested on: venous thromboembolism (VTE) in patients hospitalized for acute medical illness
Assay: MAGELLAN (Study 1): efficacy of oral rivaroxaban 10 mg OD 35 days vs sc enoxaparin 40 mg OD 10 days then placebo
Assay type: in vivo
Method: The objective of Study 1 (MAGELLAN or MAGELLAN Study) was to compare efficacy and safety of venous thromboembolism (VTE) prophylaxis with oral rivaroxaban 10 mg once daily administered for 35±4 days (hereafter referred to as 35 days or Day 35) to subcutaneous enoxaparin 40 mg once daily (OD) administered for 10±4 days (hereafter referred to as 10 days or Day 10) in men and women aged 40 years or above, who have been hospitalized for a medical illness.
Diagnosis and main criteria for inclusion in Study 1 was men and women 40 years or above and at risk for VTE being hospitalized for acute medical illness conditions, including: heart failure (New York Heart Association [NYHA] class III or IV); active cancer (e.g., admitted for chemotherapy or for the treatment of a complication of active cancer); acute ischemic stroke; acute infectious and inflammatory diseases, including acute rheumatic diseases; and acute respiratory insufficiency. Also at least one additional risk factor for VTE, including: severe varicosis (varicosities); chronic venous insufficiency; history of cancer; history of deep vein thrombosis (DVT) or pulmonary embolism (PE); history of heart failure (NYHA class III or IV); thrombophilia (hereditary or acquired); recent major surgery (6-12 weeks); recent serious trauma (6-12 weeks); hormone replacement therapy; advanced age greater than or equal to 75 years; morbid obesity (body mass index (BMI) 35 kg/m^2 or higher); and acute infectious disease contributing to hospitalization.
The study was conducted in a prospective, randomized, double-blind, double dummy, active comparator-controlled, multicenter and multinational design. There were 8101 subjects were randomized at 556 study centers in 52 countries to one of the two treatment groups. Of the 8101 randomized subjects, 4050 were randomized to active rivaroxaban and 4051 were randomized to active enoxaparin.
Primary Endpoints: The primary efficacy variable was a composite of the number of events of: asymptomatic proximal DVT in lower extremity detected by mandatory bilateral lower extremity venous ultrasonography; symptomatic DVT in lower extremity, proximal or distal; symptomatic, non-fatal PE; and VTE-related death defined as either a well-documented fatal PE, or sudden death with no other plausible explanation. The two primary efficacy endpoints were (i) test of superiority at Day 35 (Days 29-41, inclusive) and (ii) test of non-inferiority at Day 10 (Days 6-15, inclusive).
Secondary Endpoints: The first major secondary efficacy endpoint was defined as a composite of the test of superiority at Day 35 with component of VTE-related death substituted by all-cause mortality, up to Day 35. The second major efficacy secondary efficacy endpoint was the test for superiority at Day 10 using the same composite endpoint as the Day 10 non-inferiority test.
For both primary efficacy endpoints, the relative risk ratio (rivaroxaban/enoxaparin) with respect to the incidences of the primary efficacy endpoint was estimated based on a stratified estimator using Mantel-Haenszel weights (based on sample sizes by geographic region). The corresponding asymptotic 2-sided 95% confidence interval based on the approximation to the normal distribution was determined. Sensitivity analyses were performed for the primary efficacy endpoints.
The primary efficacy variable was a composite of the number of events of (1) asymptomatic proximal DVT in lower extremity detected by mandatory bilateral lower extremity venous ultrasonography; (2) symptomatic DVT in lower extremity, proximal or distal; (3) symptomatic, nonfatal PE; and (4) VTE-related death. […]

[1] = Day 10 + 5, PP Day 10 plus major and clinically relevant bleeds
[2] = Day 10 + 5, per protocol Day 10 analysis set
[3] = Day 10 + 5 up to Day 35 + 6, mITT (Day 10 to Day 35) analysis set
[4] = Day 10 + 5 up to Day 35 + 6, mITT (Day 10 to Day 35) analysis set, listed as enoxaparin
[5] = Day 35 + 6, mITT Day 35 analysis set
[6] = Day 35 + 6, mITT Day 35 analysis set, listed as enoxaparin
[7] = Day 35 + 6, mITT Day 35 plus major and clinically relevant bleeds

For Enoxaparin, which “Major vascular events (CV death, acute myocardial infarction, or acute ischemic stroke), incidence” value (Day 10) is on record?
Its value is 1.0%.

What about the “Symptomatic VTE excluding VTE-related death, incidence” value (Day 10) of the same substance?
Its value is 0.3%.

And the “Symptomatic VTE including death, incidence” value (Day 10)?
The value was 0.6%.

And the “Net clinical benefit component: asymptomatic lower proximal deep vein thrombosis” value [1]?
The value was 71 (2.4%).

And the “Net clinical benefit component: clinically relevant non-major bleeding” value [1]?
Its value is 32 (1.1%).

And the “Net clinical benefit component: death (pulmonary embolism)” value [1]?
Its value is 6 (0.2%).

What about the “Net clinical benefit component: major bleeding” value [1] of the same substance?
Its value is 4 (0.1%).

What about the “Net clinical benefit component: symptomatic deep vein thrombosis in lower extremity” value [1] of the same substance?
Its value is 6 (0.2%).

What about the “Net clinical benefit component: symptomatic non-fatal pulmonary embolism” value [1] of the same substance?
Its value is 2 (<0.1%).

What about the “Net clinical benefit component: venous thromboembolism related death” value [1] of the same substance?
Its value is 6 (0.2%).

What about the “Net clinical benefit, any event, incidence” value [1] of the same substance?
The value was 118 (3.9%).

And the “Net clinical benefit, any event, incidence” value (Day 10 + 5, PP Day 10 plus major and clinically relevant bleeds, listed as enoxaparin)?
The value was 3.9%.

And the “Asymptomatic proximal deep vein thrombosis in lower extremity, incidence” value [2]?
The value was 71 (2.4%).

And the “Death (pulmonary embolism cannot be excluded), incidence” value [2]?
The value was 6 (0.2%).

And the “Primary efficacy composite, any event, incidence” value (shortened to “Primary efficacy composite”) [2]?
The value was 82 (2.7%).

And the “Symptomatic deep vein thrombosis in lower extremity, incidence” value [2]?
The value was 6 (0.2%).

What about the “Symptomatic non-fatal pulmonary embolism, incidence” value [2] of the same substance?
The value was 2 (<0.1%).

And the “Venous thromboembolism related death, incidence” value [2]?
The value was 6 (0.2%).

What about the “Primary efficacy composite” value (Day 10 + 5, per protocol Day 10 analysis set, listed as enoxaparin) of the same substance?
Its value is 2.7%.

What about the “Asymptomatic proximal deep vein thrombosis in lower extremity, incidence” value [3] of the same substance?
The value was 89 (2.9%).

And the “Death (pulmonary embolism cannot be excluded), incidence” value [3]?
Its value is 15 (0.5%).

And the “Death (pulmonary embolism), incidence” value [3]?
Its value is 0%.

What about the “Symptomatic deep vein thrombosis in lower extremity, incidence” value [3] of the same substance?
The value was 7 (0.2%).

What about the “Symptomatic non-fatal pulmonary embolism, incidence” value [3] of the same substance?
Its value is 10 (0.3%).

What about the “Venous thromboembolism related death, incidence” value [3] of the same substance?
Its value is 15 (0.5%).

What about the “Primary efficacy composite” value (Day 10 + 5 up to Day 35 + 6, mITT (Day 10 to Day 35) analysis set, rivaroxaban-placebo phase) of the same substance?
The value was 114 (3.8%).

What about the “Primary efficacy composite” value (Day 10 + 5 up to Day 35 + 6, mITT (Day 10 to Day 35) analysis set, rivaroxaban-placebo phase, listed as enoxaparin) of the same substance?
The value was 3.8%.

And the “Asymptomatic proximal deep vein thrombosis in lower extremity, incidence” value [4]?
The value was 2.9%.

What about the “Venous thromboembolism related death, incidence” value [4] of the same substance?
Its value is 0.5%.

What about the “Major vascular events, incidence” value (Day 35) of the same substance?
Its value is 1.6%.

And the “Symptomatic VTE excluding VTE-related death, incidence” value (Day 35)?
The value was 0.7%.

What about the “Symptomatic VTE including death, incidence” value (Day 35) of the same substance?
The value was 1.4%.

And the “Asymptomatic proximal deep vein thrombosis in lower extremity, incidence” value [5]?
Its value is 133 (4.4%).

And the “Death (pulmonary embolism cannot be excluded), incidence” value [5]?
The value was 29 (0.9%).

And the “Death (pulmonary embolism), incidence” value [5]?
The value was 1 (<0.1%).

What about the “Primary efficacy composite” value [5] of the same substance?
The value was 175 (5.7%).

What about the “Symptomatic deep vein thrombosis in lower extremity, incidence” value [5] of the same substance?
Its value is 15 (0.5%).

What about the “Symptomatic non-fatal pulmonary embolism, incidence” value [5] of the same substance?
Its value is 14 (0.5%).

And the “Venous thromboembolism related death, incidence” value [5]?
The value was 30 (1.0%).

And the “Asymptomatic proximal deep vein thrombosis in lower extremity, incidence” value [6]?
Its value is 4.4%.

And the “Primary efficacy composite” value [6]?
Its value is 5.7%.

What about the “Venous thromboembolism related death, incidence” value [6] of the same substance?
The value was 1.0%.

And the “Net clinical benefit component: asymptomatic lower proximal deep vein thrombosis” value [7]?
The value was 133 (4.3%).

And the “Net clinical benefit component: clinically relevant non-major bleeding” value [7]?
Its value is 52 (1.7%).

And the “Net clinical benefit component: death (pulmonary embolism cannot be excluded)” value [7]?
The value was 29 (0.9%).

And the “Net clinical benefit component: death (pulmonary embolism)” value [7]?
The value was 1 (<0.1%).

And the “Net clinical benefit component: major bleeding” value [7]?
Its value is 15 (0.5%).

And the “Net clinical benefit component: symptomatic deep vein thrombosis in lower extremity” value [7]?
Its value is 15 (0.5%).

And the “Net clinical benefit component: symptomatic non-fatal pulmonary embolism” value [7]?
The value was 14 (0.5%).

What about the “Net clinical benefit component: venous thromboembolism related death” value [7] of the same substance?
The value was 30 (1.0%).

What about the “Net clinical benefit, any event, incidence” value [7] of the same substance?
Its value is 240 (7.8%).

And the “Net clinical benefit, any event, incidence” value (Day 35 + 6, mITT Day 35 plus major and clinically relevant bleeds, listed as enoxaparin)?
The value was 7.8%.

And the “Composite endpoint including all-cause mortality, incidence” value (Day 35, mITT Day 35 expanded)?
The value was 9.2%.

And the “All-cause mortality, incidence” value (Day 90)?
The value was 6.2%.

What about the “Major vascular events, incidence” value (Day 90) of the same substance?
Its value is 2.8%.

What about the “Symptomatic VTE excluding VTE-related death, incidence” value (Day 90) of the same substance?
Its value is 0.9%.

What about the “Symptomatic VTE including death, incidence” value (Day 90) of the same substance?
Its value is 1.9%.
